According to US12516293B2, “Reagents and methods with Wnt agonists and bioactive lipids for generating and expanding cardiomyocytes” (The Board of Trustees of the Leland Stanford Junior …, priority 2018, dated 2026):

Key:
Type in all cases: cell-based, human
TCF/LEF = assay: TOPFlash TCF/LEF luciferase reporter in day 12 hiPSC-CMs
Protocol: Day 12 hiPSC-CMs were transfected for 48h with a TCF reporter plasmid (TOPflash M50, Addgene) or the mutant reporter plasmid (TOPflash M51, Addgene) and the use of Lipofectamine 3000 (Invitrogen). 72h after transfection cells were treated with various small molecules for 24h. Cells were lysed and mixed with luciferase substrate (Promega) and the firefly luciferase expression was measured with a 96-well micro plate reader (Fisher).

hiPSC-CMs [1] = assay: CHIR-mediated hiPSC-CM proliferation with pathway inhibitors
hiPSC-CMs [2] = assay: Real-time PCR / immunostaining of cardiac gene expression in hiPSC-CMs
Protocol: For quantitative analysis of gene expression, RNA was extracted with a lysis buffer (Qiagen) from hiPSC-CMs and stored at −80° C. Total RNA from each sample was purified from cell lysate using a RNA purification kit (Qiagen). cDNA was made using iScript cDNA synthesis kit (BioRad). Quantitative PCR was performed using a 96-well thermocycler system (Biorad) with SYBR Green substrate (Affymetrix) for 40 cycles. All primers sequences were obtained from the PrimerBank (Massachusetts General Hospital/Harvard Medical School) online database. […] Day 12 hiPSC-CMs were cultured in CHIR continuously for 2 months with serial passaging followed by CHIR withdrawal for an additional month.

YAP = YAP nuclear accumulation in hiPSC-CMs; conditions: day 10 or day 30 hiPSC-CMs
Protocol: Given the well-known role of Hippo/Yap signaling in regulating cardiomyocyte and non-myocyte proliferation and regeneration (Yusuf et al. 2012; Heallen et al. 2011; Morikawa et al. 2017; Leach et al. 2017; von Gise et al. 2012), the ability of bioactive lipids was assessed to promote nuclear accumulation of Yap (FIG. 23). […] Consequently, no increase in nuclear YAP accumulation was observed following bioactive lipid treatment (FIG. 23B).

hiPSC-CMs [3] = assay: Cell cycle activity in well-differentiated hiPSC-CMs (ki67, pHH3, cell count); conditions: 5 μM VPC23019 together with S1P
Protocol: To address this, well-differentiated hiPSC-CMs were generated (e.g. day 30 or later) using chemically-defined protocols (Burridge et al. 2014; Churko et al. 2013; Sharma et al. 2015) (Movie S1) and treated them with S1P/LPA or CHIR or both (FIG. 18A). The presence of S1P/LPA receptors in these cells was first validated (FIG. 21). Immunofluorescence staining was then performed for ki67, a marker of cell cycle activity, and phospho Histone H3 (pHH3), a mitosis marker, in cardiac troponin T (TnT) positive cells.

hiPSC-CMs [4] = assay: ki67/pHH3 proliferation and binucleation of hiPSC-CMs (immunofluorescence); conditions: day 12 hiPSC-CMs (P0), 24 hrs treatment
Protocol: Immunohistochemistry was performed with the incubation of primary antibodies overnight followed by 2 hours of incubation with various Alexa fluorescence conjugated secondary antibodies. Images were made with confocal (Zeiss LSM 710) or regular immunofluorescence microscopy (Leica DM IL LED). Primaries used in this study were cardiac troponin T (MS-295, Fisher), Ki67 (ab15580, Abcam), pHH3 (#9701, Cell Signaling), aurora B (ab2254, Abcam), alpha sarcomeric actinin ([…], Sigma-Aldrich), MLC2V (ab48003, Abcam), phospo AKT […] (#9275, Cell Signaling). […] To examine this, the percentage was determined of troponin T (TnT) positive hiPSC-CMs that express the cell cycle marker ki67 or the mitosis marker phospho-histone H3 (pHH3) at each passage after treatment with CHIR or DMSO (CTR) (FIG. 2A-C). […] The short-term (24 hrs) changes were assessed in proliferation rate of day 12 hiPSC-CMs (P0) after treatment with CHIR-, CTR-, or C59, a specific inhibitor of Wnt signaling (FIG. 2I-J).

hiPSC-CMs [5] = assay: Sarcomere alignment and contractility on micropatterns; conditions: C59 added to cells previously treated with CHIR (CHIR>C59)
Protocol: Cells were plated on soft substrates with micropatterned proteins on top. After 3-6 days of culture high resolution movies (Sony Microscopy) were recorded for at least 10 individual cells per group and motion velocity analysis was processed digitally. After recordings, cells were fixed and used for immunohistochemistry and confocal imaging. Sarcomere alignment was quantified with Image J software. CM maturation is accompanied by the formation of highly structured sarcomere, bi- or multinucleation, and cell cycle exit (Bassat et al., 2017; Bersell et al., 2009; Senyo et al., 2014; Uygur and Lee, 2016). […] To address this, age-matched hiPSC-CMs exposed to media containing DMSO (CTR) were compared to ones that have undergone 3 passages in media containing 2.0 μM CHIR using various phenotypic assays of CM function. To assess sarcomere alignment, CHIR and CTR hiPSC-CMs on 7:1 aspect ratio micropatterns (Ribeiro et al., 2015) were cultured and immunostained with TnT and sarcomeric actinin antibodies.

hiPSC-CMs [6] = assay: Wnt receptor ligands on hiPSC-CM expansion and cell-cycle reactivation; conditions: day 12 proliferative hiPSC-CMs
Source text: Reactivating Wnt signaling may promote proliferation in aged, non-proliferative CMs rather than simply maintain pre-existing proliferation (FIG. 6A). […]

Cc1ccc(/C=N/NC(=O)c2ccccc2Oc2ccccc2)o1 [PNU74654]
CHIR-induced activation of TCF/LEF luciferase reporter (TCF/LEF; CHIR in the presence of PNU74654, 24 hrs): abolished
decrease of CHIR-mediated hiPSC-CM proliferation (hiPSC-CMs [1]; CHIR in the presence of PNU74654 vs CHIR alone): ~50%
CHIR-induced Wnt target gene expression (hiPSC-CMs [2]; co-treatment with CHIR, qPCR): abolish this increase
markers of hiPSC-CM maturation (MYL2, MYH7, MYOM1) (hiPSC-CMs [2]; co-treatment with CHIR, qPCR): recovered fully

lysophosphatidic acid [LPA]
YAP nuclear accumulation (YAP): No significant (N.S.) increase in YAP nuclear accumulation

NC1(c2ccc(-c3nc4ccn5c(=O)[nH]nc5c4cc3-c3ccccc3)cc2)CCC1 [MK2206]
TCF/LEF luciferase activity (TCF/LEF; CHIR and MK2206, 24 hrs): not due to the downregulation of downstream β-catenin signaling
mitotic cells expressing pAKT (hiPSC-CMs [1]; CHIR and MK2206 vs CHIR alone): far fewer mitotic cells
CM replication (hiPSC-CMs [1]; CHIR and MK2206 vs CHIR alone, 6 days): decreased

CCCCCCCCc1cccc(NC(=O)[C@H](N)COP(=O)(O)O)c1 [VPC23019]
expression of ki67 in S1P-treated hiPSC-CMs (hiPSC-CMs [3]): reduced

Cc1cc(-c2ccc(CC(=O)Nc3ccc(-c4cccnc4)cc3)cc2)ccn1 [C59]
expression of maturation, excitation, contractility and metabolism markers (hiPSC-CMs [2]; 3 additional weeks after CHIR day 12 to 28, compared with continued CHIR): upregulation of markers associated with cardiomyocyte maturation
MYL2 immunofluorescence staining (hiPSC-CMs [2]; compared with CHIR-treated cells): increase in immunofluorescence staining for MYL2
ki67 expression / proliferation rate (hiPSC-CMs [4]): did not result in a decreased rate of hiPSC-CM proliferation
sarcomere organization after C59 (hiPSC-CMs [5]): reorganization of their sarcomeres to a state similar to the age-matched control hiPSC-CMs

B1: Wnt3A: purified Wnt3A protein (R&D systems), Wnt receptor ligand (protein, UniProt P56704 19-352, looked up)
Protein Wnt-3a: SYPIWWSLAVGPQYSSLGSQPILCASIPGLVPKQLRFCRNYVEIMPSVAEGIKIGIQECQHQFRGRRWNCTTVHDSLAIFGPVLDKATRESAFVHAIASAGVAFAVTRSCAEGTAAICGCSSRHQGSPGKGWKWGGCSEDIEFGGMVSREFADARENRPDARSAMNRHNNEAGRQAIASHMHLKCKCHGLSGSCEVKTCWWSQPDFRAIGDFLKDKYDSASEMVVEKHRESRGWVETLRPRYTYFKVPTERDLVYYEASPNFCEPNPETGSFGTRDRTCNVSSHGIDGCDLLCCGRGHNARAERRREKCRCVFHWCCYVSCQECTRVYDVHTCK
CM expansion (TnT positive cell number) (hiPSC-CMs [6]): promoted CM expansion
